Numbered stars: 1 amine (or outer) side, 2 acyl side, 3 side chain; on linkers, the order of the positions; unused ones are H or OH. Bridge positions count the residues as written; N and C are the ends. Square brackets hold non-standard residues; d marks the D form. Peptide text beside a SMILES is read from it. * marks the point of attachment. X18 = O=C(O)COCCc1ccc(-c2ccc(C[C@H](N[*:1])C(=O)[*:2])cc2)cc1; Tyr(3-NO2) = N[C@@H](Cc1ccc(O)c([N+](=O)[O-])c1)C(=O)O; Tyr(3,5-I2) = N[C@@H](Cc1cc(I)c(O)c(I)c1)C(=O)O; Bip = N[C@@H](Cc1ccc(-c2ccccc2)cc1)C(=O)O; Phe(4-CN) = N#Cc1ccc(C[C@H](N)C(=O)O)cc1; Phe(2-Cl) = N[C@@H](Cc1ccccc1Cl)C(=O)O; Phe(3-Me) = Cc1cccc(C[C@H](N)C(=O)O)c1; 2Pal = N[C@@H](Cc1ccccn1)C(=O)O; 3Pal = N[C@@H](Cc1cccnc1)C(=O)O; 4Pal = N[C@@H](Cc1ccncc1)C(=O)O; Cha = N[C@@H](CC1CCCCC1)C(=O)O; Cit = NC(=O)NCCC[C@H](N)C(=O)O; NMeS = CN[C@@H](CO)C(=O)O; Carboxymethyl = O=C(O)C*; NMeA = CN[C@@H](C)C(=O)O; Dab = NCC[C@H](N)C(=O)O; Dap = NC[C@H](N)C(=O)O

15 molecules from patent US20240409585A1, “MACROCYCLIC IMMUNOMODULATORS” (priority 2021, published 2024) can be followed below.

The first experiment deals with T1, PE-labeled human PD-L1-Ig binding to Jurkat cell line over-expressing human PD-1 (Jurkat-PD-1) (Homo sapiens, UniProt Q15116).
T1 construct: expressed in transfected cells; host or cells: Jurkat
T1 sequence (Q15116 25-288): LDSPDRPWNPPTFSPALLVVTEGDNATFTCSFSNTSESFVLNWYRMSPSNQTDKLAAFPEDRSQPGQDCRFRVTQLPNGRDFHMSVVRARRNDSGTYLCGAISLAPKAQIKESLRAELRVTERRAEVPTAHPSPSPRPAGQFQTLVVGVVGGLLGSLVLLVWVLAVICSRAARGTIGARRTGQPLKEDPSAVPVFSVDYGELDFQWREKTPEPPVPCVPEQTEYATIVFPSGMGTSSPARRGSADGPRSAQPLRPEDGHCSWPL
Kind of experiment: Jurkat-PD-1 Cell Binding High-Content Screening Assay (CBA): Method 1. The settings on record: Jurkat HPDL1 PD1 IC50 (uM) (Method 1), Jurkat-hPD-1 cells, PE-labeled PD-L1-Ig 20 nM final.
The term IC50 denotes the point on the concentration scale where inhibition reaches its midpoint. In the case of `CC(C)C[C@@H]1NC(=O)[C@H](CCN)NC(=O)[C@@H](CC(C)C)NC(=O)[C@H](C)N(C)C(=O)[C@H](CCCNC(=N)N)NC(=O)[C@H](Cc2ccc(-c3ccccc3)cc2)NC(=O)[C@H](C(C)C)NC(=O)[C@H](Cc2c[nH]c3ccccc23)NC(=O)[C@H](CC(=O)O)NC(=O)[C@H](Cc2ccc(O)cc2)NC(=O)[C@H](Cc2cccnc2)NC(=O)CSC[C@@H](C(=O)N[C@@H](C)C(N)=O)NC(=O)[C@H](CO)NC(=O)[C@H](C(C)C)NC1=O` [Compound 1034] ({CH2CO}-[3Pal]YDWV[Bip]R[NMeA][dL][Dab]LVSCA-NH2; thioether N-14), the half-inhibitory concentration (IC50) came to 0.05 µM.

The same experiment, now with this note: Jurkat-hPD-1 cells, PE-labeled PD-L1-Ig 20 nM final; read-out: Jurkat HPDL1 PD1 IC50 (uM) (Method 1).
Turning to `CC(C)C[C@@H]1NC(=O)[C@H](CCN)NC(=O)[C@@H](CC(C)C)NC(=O)[C@H](C)N(C)C(=O)[C@H](CCCNC(N)=O)NC(=O)[C@H](Cc2ccc(-c3ccccc3)cc2)NC(=O)[C@H](C(C)C)NC(=O)[C@H](Cc2c[nH]c3ccccc23)NC(=O)[C@H](CC(=O)O)NC(=O)[C@H](Cc2ccc(OCC(=O)O)cc2)NC(=O)[C@H](Cc2ccccn2)NC(=O)CSC[C@@H](C(=O)N[C@@H](C)C(N)=O)NC(=O)[C@H]([C@@H](C)O)NC(=O)[C@H](C(C)C)NC1=O` [Compound 1329] ({CH2CO}-[2Pal]Y(Carboxymethyl)DWV[Bip][Cit][NMeA][dL][Dab]LVTCA-NH2; thioether N-14), the IC50 came to 0.19 µM. As for `CC(C)C[C@@H]1NC(=O)CSC[C@@H](C(=O)N[C@@H](C)C(N)=O)NC(=O)[C@H]([C@@H](C)O)NC(=O)[C@H](C(C)C)NC(=O)[C@H](CC(C)C)NC(=O)[C@H](CCN)NC(=O)[C@@H](CC(C)C)NC(=O)[C@H](C)N(C)C(=O)[C@H](CCCNC(=N)N)NC(=O)[C@H](Cc2ccc(-c3ccccc3)cc2)NC(=O)[C@H](C(C)C)NC(=O)[C@H](Cc2c[nH]c3ccccc23)NC(=O)[C@H](CC(=O)O)NC(=O)[C@H](Cc2ccc(O)cc2)NC1=O` [Compound 1039] ({CH2CO}-LYDWV[Bip]R[NMeA][dL][Dab]LVTCA-NH2; thioether N-14), the IC50 was 0.08 µM. For `CC(C)C[C@@H]1NC(=O)[C@H](CCCNC(=N)N)NC(=O)[C@@H](CC(C)C)NC(=O)[C@H](C)N(C)C(=O)[C@H](CCCNC(=N)N)NC(=O)[C@H](Cc2ccc(-c3ccccc3)cc2)NC(=O)[C@H](C(C)C)NC(=O)[C@H](Cc2ccccc2Cl)NC(=O)[C@H](CC(=O)O)NC(=O)[C@H](Cc2ccc(O)cc2)NC(=O)[C@H](CC(N)=O)NC(=O)CSC[C@@H](C(=O)N[C@@H](C)C(N)=O)NC(=O)[C@H]([C@@H](C)O)NC(=O)[C@H](C(C)C)NC1=O` [Compound 1193] ({CH2CO}-NYD[Phe(2-Cl)]V[Bip]R[NMeA][dL]RLVTCA-NH2; thioether N-14), the IC50 is 0.35 µM.

In the case of `CC(C)C[C@@H]1NC(=O)[C@H](Cc2c[nH]c3ccccc23)NC(=O)[C@H](CC(=O)O)NC(=O)[C@H](Cc2ccncc2)NC(=O)[C@H](Cc2ccc(OCC(=O)O)cc2)NC(=O)CSC[C@@H](C(=O)N[C@@H](CCN)C(N)=O)NC(=O)[C@H](CO)NC(=O)[C@H](C(C)C)NC(=O)[C@H](CC2CCCCC2)NC(=O)[C@H](CCN)NC(=O)[C@@H](CC(C)C)NC(=O)[C@H](C)N(C)C(=O)[C@H](Cc2ccc(O)cc2)NC(=O)[C@H](Cc2ccc(-c3ccccc3)cc2)NC1=O` [Compound 1908] ({CH2CO}-Y(Carboxymethyl)[4Pal]DWL[Bip]Y[NMeA][dL][Dab][Cha]VSC[Dab]-NH2; thioether N-14), the IC50 was determined as 0.04 µM. With `CC(C)C[C@@H]1NC(=O)[C@H](CCN)NC(=O)[C@@H](CC(C)C)NC(=O)[C@H](C)N(C)C(=O)[C@H](CCCNC(=N)N)NC(=O)[C@H](Cc2ccc(-c3ccccc3)cc2)NC(=O)[C@H](C(C)C)NC(=O)[C@H](Cc2c[nH]c3ccccc23)NC(=O)[C@H](CC(N)=O)NC(=O)[C@H](Cc2ccc(OCC(=O)O)cc2)NC(=O)[C@H](CC(N)=O)NC(=O)CSC[C@@H](C(=O)N[C@@H](C)C(N)=O)NC(=O)[C@H]([C@@H](C)O)NC(=O)[C@H](C(C)C)NC1=O` [Compound 1206] ({CH2CO}-NY(Carboxymethyl)NWV[Bip]R[NMeA][dL][Dab]LVTCA-NH2; thioether N-14), the IC50 stood at 0.59 µM. For the molecule `CC(C)C[C@@H]1NC(=O)[C@H](CCN)NC(=O)[C@@H](CC(C)C)NC(=O)[C@H](CO)N(C)C(=O)[C@H](C(C)C)NC(=O)[C@H](Cc2ccc(-c3ccccc3)cc2)NC(=O)[C@H](C(C)C)NC(=O)[C@H](Cc2c[nH]c3ccccc23)NC(=O)[C@H](CC(=O)O)NC(=O)[C@H](Cc2ccc(O)cc2)NC(=O)[C@H](CC(N)=O)NC(=O)CSC[C@@H](C(=O)N[C@@H](C)C(N)=O)NC(=O)[C@H]([C@@H](C)O)NC(=O)[C@H](C(C)C)NC1=O` [Compound 1370] ({CH2CO}-NYDWV[Bip]V[NMeS][dL][Dab]LVTCA-NH2; thioether N-14), the IC50 came out at 0.01 µM. The same measure, in the same setting: as for `CC(C)C[C@@H]1NC(=O)[C@H](CCN)NC(=O)[C@@H](CC(C)C)NC(=O)[C@H](C)N(C)C(=O)[C@H](CCCNC(=N)N)NC(=O)[C@H](Cc2ccc(-c3ccc(CCOCC(=O)O)cc3)cc2)NC(=O)[C@H](C(C)C)NC(=O)[C@H](Cc2c[nH]c3ccccc23)NC(=O)[C@H](CC(=O)O)NC(=O)[C@H](Cc2ccc(O)cc2)NC(=O)[C@H](CC(N)=O)NC(=O)CSC[C@@H](C(=O)N[C@@H](C)C(N)=O)NC(=O)[C@H]([C@@H](C)O)NC(=O)[C@H](C(C)C)NC1=O` [Compound 1210] ({CH2CO}-NYDWV[X18]R[NMeA][dL][Dab]LVTCA-NH2; thioether N-14), the figure is 0.88 µM. Still for that read-out and setting: the value for `CC(C)C[C@@H]1NC(=O)[C@H](CCCNC(=N)N)NC(=O)[C@@H](CC(C)C)NC(=O)[C@H](C)N(C)C(=O)[C@H](CCCNC(=N)N)NC(=O)[C@H](Cc2ccc(-c3ccccc3)cc2)NC(=O)[C@H](C(C)C)NC(=O)[C@H](Cc2c[nH]c3ccccc23)NC(=O)[C@H](CC(=O)O)NC(=O)[C@H](Cc2cc(I)c(O)c(I)c2)NC(=O)[C@H](Cc2ccccc2)NC(=O)CSC[C@@H](C(=O)N[C@@H](C)C(N)=O)NC(=O)[C@H]([C@@H](C)O)NC(=O)[C@H](C(C)C)NC1=O` [Compound 1093] ({CH2CO}-F[Tyr(3,5-I2)]DWV[Bip]R[NMeA][dL]RLVTCA-NH2; thioether N-14) was 0.05 µM; that for `CC(C)C[C@@H]1NC(=O)[C@H](Cc2c[nH]c3ccccc23)NC(=O)[C@H](CC(=O)O)NC(=O)[C@H](Cc2ccc(O)c([N+](=O)[O-])c2)NC(=O)[C@H](Cc2ccccc2)NC(=O)CSC[C@@H](C(=O)N[C@@H](C)C(N)=O)NC(=O)[C@H](CO)NC(=O)[C@H](C(C)C)NC(=O)[C@H](CC(C)C)NC(=O)[C@H](CC(N)=O)NC(=O)[C@@H](C)NC(=O)[C@H](C)N(C)C(=O)[C@H](C(C)C)NC(=O)[C@H](Cc2ccc(-c3ccccc3)cc2)NC1=O` [Compound 1738] ({CH2CO}-F[Tyr(3-NO2)]DWL[Bip]V[NMeA][dA]NLVSCA-NH2; thioether N-14) was 0.02 µM.

For `CC(C)C[C@@H]1NC(=O)[C@H](CCN)NC(=O)[C@@H](CC(C)C)NC(=O)[C@H](C)N(C)C(=O)[C@H](C(C)C)NC(=O)[C@H](Cc2ccc(-c3ccccc3)cc2)NC(=O)[C@H](C(C)C)NC(=O)[C@H](Cc2c[nH]c3ccccc23)NC(=O)[C@H](CC(=O)O)NC(=O)[C@H](Cc2ccc(OCC(=O)O)cc2)NC(=O)[C@H](CN)NC(=O)CSC[C@@H](C(=O)N[C@@H](C)C(N)=O)NC(=O)[C@H]([C@@H](C)O)NC(=O)[C@H](C(C)C)NC1=O` [Compound 1447] ({CH2CO}-[Dap]Y(Carboxymethyl)DWV[Bip]V[NMeA][dL][Dab]LVTCA-NH2; thioether N-14), the IC50 was found to be 0.03 µM. Regarding `CC(C)C[C@@H]1NC(=O)[C@H](Cc2c[nH]c3ccccc23)NC(=O)[C@H](CC(=O)O)NC(=O)[C@H](Cc2ccc(C#N)cc2)NC(=O)[C@H](Cc2ccccc2)NC(=O)CSC[C@@H](C(=O)N[C@@H](C)C(N)=O)NC(=O)[C@H](CO)NC(=O)[C@H](C(C)C)NC(=O)[C@H](CC(C)C)NC(=O)[C@H](CC(N)=O)NC(=O)[C@@H](C)NC(=O)[C@H](C)N(C)C(=O)[C@H](C(C)C)NC(=O)[C@H](Cc2ccc(-c3ccccc3)cc2)NC1=O` [Compound 1726] ({CH2CO}-F[Phe(4-CN)]DWL[Bip]V[NMeA][dA]NLVSCA-NH2; thioether N-14), the concentration for half-maximal inhibition (IC50) was found to be 0.01 µM.

Regarding `CC(C)C[C@@H]1NC(=O)[C@H](CCN)NC(=O)[C@@H](CC(C)C)NC(=O)[C@H](C)N(C)C(=O)[C@H](CCCNC(N)=O)NC(=O)[C@H](Cc2ccc(-c3ccccc3)cc2)NC(=O)[C@H](C(C)C)NC(=O)[C@H](Cc2c[nH]c3ccccc23)NC(=O)[C@H](CC(=O)O)NC(=O)[C@H](Cc2ccc(C#N)cc2)NC(=O)[C@H](CN)NC(=O)CSC[C@@H](C(=O)N[C@@H](C)C(N)=O)NC(=O)[C@H]([C@@H](C)O)NC(=O)[C@H](C(C)C)NC1=O` [Compound 1408] ({CH2CO}-[Dap][Phe(4-CN)]DWV[Bip][Cit][NMeA][dL][Dab]LVTCA-NH2; thioether N-14), the IC50 came out at 0.1 µM. Still for that read-out and setting: as for `Cc1cccc(C[C@@H]2NC(=O)[C@H](CC(=O)O)NC(=O)[C@H](Cc3ccc(OCC(=O)O)cc3)NC(=O)[C@H](Cc3ccc(OCC(=O)O)cc3)NC(=O)CSC[C@@H](C(=O)N[C@@H](C)C(N)=O)NC(=O)[C@H](CO)NC(=O)[C@H](C(C)C)NC(=O)[C@H](CC(C)C)NC(=O)[C@H](CC(N)=O)NC(=O)[C@@H](C)NC(=O)[C@H](C)N(C)C(=O)[C@H](C(C)C)NC(=O)[C@H](Cc3ccc(-c4ccccc4)cc3)NC(=O)[C@H](CC(C)C)NC2=O)c1` [Compound 1580] ({CH2CO}-Y(Carboxymethyl)Y(Carboxymethyl)D[Phe(3-Me)]L[Bip]V[NMeA][dA]NLVSCA-NH2; thioether N-14), the figure is 0.01 µM; as for `Cc1cccc(C[C@@H]2NC(=O)[C@H](CC(=O)O)NC(=O)[C@H](Cc3ccc(O)cc3)NC(=O)[C@H](CC(N)=O)NC(=O)CSC[C@@H](C(=O)N[C@@H](C)C(N)=O)NC(=O)[C@H]([C@@H](C)O)NC(=O)[C@H](C(C)C)NC(=O)[C@H](CC(C)C)NC(=O)[C@H](CCN)NC(=O)[C@@H](CC(C)C)NC(=O)[C@H](C)N(C)C(=O)[C@H](Cc3cnc[nH]3)NC(=O)[C@H](Cc3ccc(-c4ccccc4)cc3)NC(=O)[C@H](C(C)C)NC2=O)c1` [Compound 1376] ({CH2CO}-NYD[Phe(3-Me)]V[Bip]H[NMeA][dL][Dab]LVTCA-NH2; thioether N-14), 0.02 µM.
